Active and inactive are the calls of the source.
Columns and labels:
[1] = target: T1, Rac GTPase-activating protein 1 (Homo sapiens, UniProt Q9H0H5); assay: MgcRacGAP GTPase-activating activity inhibitors, confirmation, biochemical, ADP Hunter fluorescence, primary and confirmatory (AID 624330); format: functional
T1 sequence (Q9H0H5 whole entry): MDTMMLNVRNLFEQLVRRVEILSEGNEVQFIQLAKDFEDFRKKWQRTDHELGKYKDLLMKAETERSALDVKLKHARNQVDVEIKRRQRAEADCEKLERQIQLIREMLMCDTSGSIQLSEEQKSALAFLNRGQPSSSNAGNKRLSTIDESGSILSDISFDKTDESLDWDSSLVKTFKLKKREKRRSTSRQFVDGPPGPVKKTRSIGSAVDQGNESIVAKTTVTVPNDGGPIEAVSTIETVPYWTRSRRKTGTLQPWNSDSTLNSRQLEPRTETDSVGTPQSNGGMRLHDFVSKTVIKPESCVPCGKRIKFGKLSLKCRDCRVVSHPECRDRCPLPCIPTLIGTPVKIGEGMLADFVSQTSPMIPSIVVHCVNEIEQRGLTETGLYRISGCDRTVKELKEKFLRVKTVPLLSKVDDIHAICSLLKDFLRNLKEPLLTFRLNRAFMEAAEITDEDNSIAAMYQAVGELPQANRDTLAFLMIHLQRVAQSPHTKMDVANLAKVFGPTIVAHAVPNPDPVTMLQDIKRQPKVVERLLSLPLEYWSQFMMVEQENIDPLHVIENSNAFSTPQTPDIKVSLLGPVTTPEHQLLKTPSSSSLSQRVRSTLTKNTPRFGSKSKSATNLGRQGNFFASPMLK

[2] = HeLa cell cytotoxicity, dose response, cytotoxicity control for MgcRacGAP inhibitor project (AID 624300); format: functional
[3] = HEK293T cytotoxicity, dose response, cytotoxicity control for miR-122 modulator project, cell-based, inhibitor set, cherry-pick, set 2 (AID 720697); format: functional
Major prion protein = Major prion protein (Homo sapiens, UniProt P04156); format: functional, cell-based
[4] = intracellular Trypanosoma cruzi inhibitors in host cells – cell-based, plate reader, cherry-pick samples, set 3, dose response (AID 651818); format: functional;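 also: compounds incubated with infected cells for about four days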
Paired box protein Pax-8 = Paired box protein Pax-8 (Homo sapiens, UniProt Q06710); assay: inhibitors of PAX8-driven TPO luciferase reporter, dose response, RMG-I cells, cherry-pick (AID 687027); format: functional, cell-based;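 also: luciferase reporter driven by Pax8 target thyroperoxidase promoter measured by SteadyGlo luminescence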
[5] = target: T2, Serine/threonine-protein phosphatase (Candida dubliniensis (strain CD36 / CBS 7987 / NCPF 3949 / NRRLY-17841) (Yeast), UniProt B9W6M3); assay: calcineurin pathway inhibitors in yeast reporter, dose response, S. cerevisiae, CDRE-lacZ, luminescence, secondary (AID 2388); format: functional, cell-based;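 also: yeast reporter cells carrying a calcineurin-responsive lacZ construct stimulated with calcium chloride; luminescent beta-galactosidase reporter signal in whole cells rather than isolated phosphatase activity; potency for inhibition where a drop in reporter signal means calcineurin blockade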
T2 sequence (B9W6M3 whole entry): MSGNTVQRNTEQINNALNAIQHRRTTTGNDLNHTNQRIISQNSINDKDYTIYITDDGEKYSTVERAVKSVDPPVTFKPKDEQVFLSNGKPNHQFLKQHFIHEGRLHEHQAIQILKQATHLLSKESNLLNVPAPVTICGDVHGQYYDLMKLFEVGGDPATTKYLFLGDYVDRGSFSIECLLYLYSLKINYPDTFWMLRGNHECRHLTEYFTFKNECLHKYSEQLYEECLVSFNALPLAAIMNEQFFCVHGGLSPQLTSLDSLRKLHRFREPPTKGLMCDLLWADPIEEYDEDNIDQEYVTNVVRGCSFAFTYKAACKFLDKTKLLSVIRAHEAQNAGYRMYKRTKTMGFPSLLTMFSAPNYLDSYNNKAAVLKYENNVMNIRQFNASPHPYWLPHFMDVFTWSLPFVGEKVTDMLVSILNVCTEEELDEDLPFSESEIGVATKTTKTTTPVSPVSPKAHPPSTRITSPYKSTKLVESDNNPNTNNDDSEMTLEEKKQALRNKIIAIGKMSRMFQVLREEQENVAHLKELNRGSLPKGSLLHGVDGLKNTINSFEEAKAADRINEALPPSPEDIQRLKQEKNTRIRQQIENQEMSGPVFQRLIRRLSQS

[6] = microbe, parasite or virus in culture; format: functional; conditions: Mycobacterium tuberculosis
[7] = NIH-3T3 fibroblast cytotoxicity, dose response, cytotoxicity control, cell-based, fluorescence, Alamar Blue, secondary assay (AID 2327); format: functional;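 also: NIH-3T3 mouse fibroblasts cultured with fluconazole at 8 µg/mL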
[8] = C. albicans growth with fluconazole, confirmation, fluorescence, retest (AID 2467); format: functional, cell-based
[9] = target: ATP-dependent molecular chaperone HSP82 (Candida albicans (strain WO-1) (Yeast), UniProt C4YTQ8); assay: loss of DOC-induced GRE-beta-galactosidase reporter signal, dose response, Hsp90 inhibitor project, S. cerevisiae, luminescence (AID 2400); format: functional, cell-based;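 also: beta-galactosidase luminescence from glucocorticoid response element reporter as proxy for Hsp90 function; inhibitor potency where signal loss means Hsp90 inhibition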
[10] = inhibitors of intracellular T. cruzi replication, confirmation, NIH3T3 host cells, beta-gal luminescence (AID 2044); format: functional, cell-based;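 also: intracellular parasites grown in NIH/3T3 mouse fibroblasts as host cells; luminescent beta-galactosidase reporter signal from transgenic T. cruzi replicating inside host cells; inhibitors lower the luminescence signal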
[11] = ADAM10 protease inhibitors, dose response, selectivity assay for ADAM17 exosite inhibitor project, biochemical, FRET peptide substrate, recombinant human ADAM10 (AID 743259);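 also: ADAM10 enzyme cleaving a FRET peptide substrate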
[12] = cytotoxicity toward NIH3T3 fibroblasts, dose response, counter-screen, cell-based, ATP luminescence, mouse fibroblasts (AID 2010); format: functional;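 also: cells exposed to compound for about 90 hours before reading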
[13] = target: Disintegrin and metalloproteinase domain-containing protein 17 (Homo sapiens, UniProt P78536); assay: exosite inhibitors of ADAM17, dose response, biochemical (AID 743260)
[14] = target: 5-hydroxytryptamine receptor 2A (Mus musculus, UniProt P35363); format: functional, cell-based;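 also: CHO-K1 cells with tagged receptor and beta-arrestin; agonist potency measured as compound-induced activation of the receptor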
Mu-type opioid receptor = Mu-type opioid receptor (Homo sapiens, UniProt P35372); format: functional, cell-based;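 also: U2OS cells with beta-arrestin recruitment to OPRM1 by beta-gal complementation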
[15] = target: Mitogen-activated protein kinase 10 (Homo sapiens, UniProt P53779); assay: Dose response biochemical screening assay for inhibitors of c-Jun N-Terminal Kinase 3 (JNK3). [Related pubchem assays: 746 ]
[16] = target: DNA dC->dU-editing enzyme APOBEC-3G (Homo sapiens, UniProt Q9HC16); assay: Dose Response confirmation of small molecule APOBEC3G DNA Deaminase Inhibitors via a fluorescence-based single-stranded DNA deaminase assay. [Related pubchem assays (depositor defined):AID493012, AID493028]; format: functional
[17] = target: DNA dC->dU-editing enzyme APOBEC-3A (Homo sapiens, UniProt P31941); assay: APOBEC3A DNA deaminase inhibitors, dose response, biochemical (AID 504722); format: functional
[18] = target: T3, Polyadenylate-binding protein 1 (Homo sapiens, UniProt P11940); assay: PABP1 MLLE–PAM2 interaction inhibitors, dose response, miRNA deadenylation inhibitor project, biochemical, fluorescence polarization, Cy5-PAM2 peptide, secondary (AID 602260); format: functional; conditions: read-out: IC50_Mean
[19] = target: T4, Mannose-6-phosphate isomerase (Homo sapiens, UniProt P34949); assay: human PMI inhibitors, high substrate, primary screen, biochemical, fluorescence intensity, high mannose 6-phosphate (AID 1220)
T4 sequence (P34949 whole entry): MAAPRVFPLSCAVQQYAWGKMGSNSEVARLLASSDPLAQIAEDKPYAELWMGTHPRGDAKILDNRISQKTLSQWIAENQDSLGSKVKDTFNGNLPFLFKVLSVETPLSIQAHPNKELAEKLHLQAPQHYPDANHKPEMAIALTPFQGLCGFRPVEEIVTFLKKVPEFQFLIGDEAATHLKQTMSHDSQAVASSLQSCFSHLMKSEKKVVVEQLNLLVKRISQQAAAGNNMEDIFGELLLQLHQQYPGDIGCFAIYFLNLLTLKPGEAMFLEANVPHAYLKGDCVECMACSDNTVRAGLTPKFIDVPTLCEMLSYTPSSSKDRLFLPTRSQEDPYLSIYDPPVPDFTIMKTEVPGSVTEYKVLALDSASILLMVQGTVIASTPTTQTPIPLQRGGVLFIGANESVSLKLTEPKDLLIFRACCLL

[20] = target: T3, Polyadenylate-binding protein 1; assay: PABP1 MLLE–PAM2 binding inhibitor potency, dose response, biochemical, fluorescence polarization, FITC-PAM2 peptide (AID 602259); format: functional; conditions: read-out: IC50_Mean
[21] = target: Heat shock protein HSP 90-alpha (Homo sapiens, UniProt P07900); assay: Luminescence-based dose response biochemical high throughput screening assay for inhibitors of the Heat Shock Protein 90 (HSP90). [Related pubchem assays: 1831 (Summary AID.), 1846 (Confirmation screen.), 1789 (Primary screen.)]
[22] = inhibitors of clade B AD8 Env fusion, dose response, cell-based, cherry-pick (AID 652062); format: functional;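 also: luciferase signal from cell-cell fusion driven by HIV-1 clade B AD8 Env; potency is for inhibitors of fusion seen as a drop in luminescence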
[23] = inhibitors of HIV Env-driven cell fusion, dose response, cherry-pick (AID 652057); format: functional, cell-based
Large T antigen = Large T antigen (Simian virus 40, UniProt P03070); format: functional, Betapolyomavirus macacae;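 also: Confirmatory-stage PubChem screen for compounds that inhibit SV40 T antigen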
Estrogen receptor beta = Estrogen receptor beta (Homo sapiens, UniProt Q92731);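 also: recombinant ER-beta bound to coactivator SRC1 peptide in presence of estradiol agonist; inhibitors block coactivator peptide binding and lower the FRET signal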
[24] = cytotoxicity in OVCAR8 ovarian cancer cells, dose response, PAX8 project, cell-based, plate reader, dry powder samples (AID 743197); format: functional; conditions: OVCAR-8
[25] = target: T4, Mannose-6-phosphate isomerase; assay: inhibitors of human PMI, primary screen, biochemical, fluorescence intensity, coupled assay (AID 1209)

## CCN(c1ccccc1)S(=O)(=O)c1ccc(N2CCN(c3ccc(O)cc3)CC2)nc1
[1]
  IC50: 40.5 µM (active)
[2]
  CC50: 100 µM (active)

## Cn1nccc1C(=O)Nc1ccc(OC(=O)c2ccnn2C)cc1
[1]
  IC50: 16.7 µM (active)
[2]
  CC50: 100 µM (active)

## C[C@H](NC(=O)C[C@@H]1CC[C@H]2[C@H](COc3ccc(NS(=O)(=O)c4ccc(Cl)cc4)cc3C(=O)N2C)O1)c1ccccc1
[3]
  AC50: 9.74 µM (active)

## CCCn1c(N)c(C(=O)CSc2nncs2)c(=O)[nH]c1=O
Major prion protein
  IC50: 5.88 µM (active)
cells
  IC50: > 138 µM (inactive)

## COc1ccc(CN(C)C[C@H]2Oc3ccc(NC(=O)Nc4ccc(C(F)(F)F)cc4)cc3CC(=O)N([C@H](C)CO)C[C@H]2C)cc1
[4]
  AC50: 3.5 µM (active)

## Cc1ccc(S(=O)(=O)Nc2cccc3c2O[C@@H](CN(C)Cc2ccc(Oc4ccccc4)cc2)[C@@H](C)CN([C@H](C)CO)C3=O)cc1
[4]
  AC50: 2.89 µM (active)
Paired box protein Pax-8
  AC50: 12.2 µM (active)

## Cc1ccnc(Sc2ccc([N+](=O)[O-])cc2[N+](=O)[O-])n1
[5]
  EC50: > 180 µM (inactive)
[6]
  CC50: 7.25 µM (active)
[7]
  EC50: 14.2 µM (active)
[8]
  EC50: 0.91 µM (active)
[9]
  EC50: 23.6 µM (active)

## Cc1ccc(S(=O)(=O)N(CCCO)CC(O)CON=C2c3ccccc3-c3ccccc32)cc1 (stereo not drawn)
[10]
  EC50: 1.6 µM (active)
[11]
  IC50: > 7.72 µM (active)
[12]
  EC50: > 60 µM (not active)
[13]
  IC50: > 69.5 µM (inactive)

## COc1cccc(N2CCN(Cc3nc(N)nc(N4CCCc5ccccc54)n3)CC2)c1
[14]
  EC50: 76.1 µM (inactive)
Mu-type opioid receptor
  EC50: 92.4 µM (inactive)

## CCOc1cccc(OCCOc2ccc(C(=O)c3ccccc3)cc2)c1
[11]
  IC50: > 69.5 µM (inactive)
[13]
  IC50: > 69.5 µM (inactive)

## COc1cc(CC(=O)Nc2ncc(C)s2)cc(OC)c1OC
[15]
  IC50: 13.3 µM (not active)

## CCn1c(O)nc(CS(=O)(=O)c2ccccc2)c1C
[16]
  IC50: 6.9 µM (active)
[17]
  IC50: > 100 µM (inactive)
[18]
  IC50: > 66 µM (inactive)
[19]
  IC50: 1.23 µM (active)
[20]
  IC50: > 66 µM (inactive)

## Cc1ccc2[nH]c3c(c2c1)CCc1c[nH]nc1-3
[15]
  IC50: 16.4 µM (not active)
[19]
  IC50: 43.4 µM (active)

## CCOc1ccc(-c2nc(CN(Cc3ccccc3)C[C@@H]3CCC(=O)N3)c(C)o2)cc1
[21]
  IC50: 3.05 µM (active)

## Cc1ccccc1S(=O)(=O)N1C[C@H](O)COC[C@H]2O[C@@H](CC(=O)NCc3ccccc3Cl)CC[C@@H]21
[22]
  AC50: 6.43 µM (active)
[23]
  AC50: 1.12 µM (active)

## CCc1cc(S)n2c(nc3ccccc32)c1C#N
Large T antigen
  IC50: 99.8 µM (active)
[5]
  EC50: > 180 µM (inactive)
[7]
  EC50: > 150 µM (inactive)
[8]
  EC50: 0.254 µM (active)
[9]
  EC50: > 150 µM (inactive)

## COC(=O)CSc1nc(-c2ccccc2)nc2ccc(F)cc12
Major prion protein
  IC50: 2.56 µM (active)
cells
  IC50: > 138 µM (inactive)

## COc1ccc(NC(=O)C2(C)Cc3c(-c4cccc(C(F)(F)F)c4)ccnc3O2)cn1 (stereo not drawn)
[11]
  IC50: 32.4 µM (inactive)
[13]
  IC50: > 69.5 µM (inactive)

## c1ccc2c(c1)nc(N1CCOCC1)c1c3ccccc3[nH]c21
[15]
  IC50: 30.4 µM (not active)

## C[C@@H]1CCCCO[C@H](CN(C)S(=O)(=O)c2cccs2)[C@@H](C)CN([C@H](C)CO)C(=O)c2cc(NC(=O)Nc3ccc(C(F)(F)F)cc3)ccc2O1
[4]
  AC50: 4.91 µM (active)

## O=S(=O)(Nc1ncnc2sc3c(c12)CCC3)c1ccc2ccccc2c1
Estrogen receptor beta
  IC50: 25 µM (active)

## c1ccc(N2CCN(Cc3ccc4c(c3)OCO4)CC2)nc1
[14]
  EC50: 0.0228 µM (active)
Mu-type opioid receptor
  EC50: 92.5 µM (inactive)

## CCOC(=O)NC(=O)CSc1cc(C)c2cc(C)cc(C)c2n1
Major prion protein
  IC50: 9.4 µM (active)
cells
  IC50: > 138 µM (inactive)

## CCCN1CCC[C@H](c2cccc(O)c2)C1
[14]
  EC50: 0.711 µM (active)
Mu-type opioid receptor
  EC50: 92.4 µM (inactive)

## C[C@@H]1CCCCO[C@@H](CN(C)Cc2ccc(Cl)c(Cl)c2)[C@H](C)CN([C@@H](C)CO)C(=O)c2cc(NS(=O)(=O)c3ccc(Cl)cc3)ccc2O1
[24]
  AC50: 44 µM (active)
Paired box protein Pax-8
  AC50: 7 µM (active)

## C[C@@H]1CCCCO[C@@H](CN(C)Cc2ccncc2)[C@H](C)CN([C@H](C)CO)C(=O)c2cc(NC(=O)Nc3ccc(C(F)(F)F)cc3)ccc2O1
[24]
  AC50: 53.8 µM (active)
Paired box protein Pax-8
  AC50: 6.48 µM (active)

## CC(C)(C)N1C(=O)Cc2c1nc(N)c1c(N)nc(N3CCCCC3CO)c(C#N)c21 (stereo not drawn)
[25]
  IC50: > 50 µM (not active)
[19]
  IC50: > 50 µM (not active)
